According to US6486326B2, “iso-CBI and iso-CI analogs of CC-1065 duocarmycins” (The Scripps Research Institute, priority 1997, dated 2002):
“And” between values parts separate entries of the source, which are not always exact repeats. Equal entries are not always repeated.

What was measured:
[1] = Solvolysis reactivity (UV, 50% CH3OH-aqueous buffer, pH 3); assay type: physicochemical
Procedure: The solvolysis was followed spectrophotometrically by UV with the disappearance of the long-wavelength absorption band of the iso-CBI chromophore (397 nm), FIG. 3.
Solvolysis Reactivity: N-BOC-iso-CBI (31, 0.2 mg) was dissolved in CH3OH (1.5 mL) and mixed with pH 3 aqueous buffer (1.5 mL). The buffer contained 4:1:20 (v/v/v) 0.1 M citric acid, 0.2 M Na2HPO4, and H2O, respectively. The solvolysis solution was sealed and kept at 25° C. protected from light. The UV spectrum was measured at regular intervals every 1 h during the first 24 h, every 4 during the next 72 h, and every 12 h for an additional week. The decrease in the long wavelength absorption at 397 nm was monitored, FIG. 3. […] (FIG. 9).
Similarly, N—CO2Me-iso-CBI (33, 0.2 mg) was dissolved in CH3OH (1.5 mL) and mixed with pH 3 aqueous buffer (1.5 mL). The solvolysis solution was sealed and kept at 25° C. protected from light. The UV spectrum was measured at regular intervals every 1 h during the first 24 h, every 4 h during the next 72 h, and every 12 h for an additional week. The decrease in the long wavelength absorption at 395 nm was monitored, FIG. 3.
Similarly, 35 (0.2 mg) was dissolved in CH3OH (1.5 mL) and mixed with pH 3 aqueous buffer (1.5 mL). The solvolysis solution was sealed and kept at 25° C. protected from light. The UV spectrum was measured at regular intervals every 1 h during the first 12 h, every 2 h for the next 24 h, and every 4 h for an additional day. The decrease in the short wavelength absorption at 239 nm was monitored, FIG. 9.

[2] = test system: L1210; assay: In vitro cytotoxic activity; assay type: cell-based
[3] = Stability of neat sample to ambient light and storage; assay type: physicochemical; details: 48 h
Procedure: Exclusive spirocyclization with cyclopropane formation was observed, and no competitive O-alkylation leading to 36 was detected. However, prolonged exposure of neat 31 to ambient light at 25° C. […] Thus, the handling and storage of the iso-CBI based agents were conducted minimizing their exposure to light typically at subzero temperatures.

[4] = test system: w836 DNA (146 bp); assay: DNA alkylation selectivity and efficiency, thermally-induced strand cleavage of w836 DNA; assay type: biochemical
Procedure: FIG. 6 illustsrates thermally-induced strand cleavage of w836 DNA (146 bp, nucleotide nos. 5189-91): DNA-agent incubation for 24 h ((−)-iso-CBI-TMI) at 25° C., removal of unbound agent and 30 min of thermolysis (100° C.), followed by denaturing 8% PAGE and autoradiography; lane 1, control DNA; lanes 2-5, Sanger G, C, A, and T sequencing reactions; lanes 6-8 (−)-iso-CBI-TMI ([…] to 1×10^−5 M); lanes 9-10, (+)-duocarmycin SA (1×10^−5 to 1×10^−6 M); lanes 11-12, (+)-iso-CBI-TMI (1×10^−2 and 1×10^−3).
DNA Alkylation Selectivity and Efficiency: The DNA alkylation properties of the agents were examined within w794 and w836 duplex DNA for which comparative results are available for related agents. (Boger, D. L., et al., J. Am. Chem. Soc. 1994, 116, 11335; Boger, D. L., et al., J. Am. Chem. Soc. 1994, 116, 6461; and Boger, D. L., et al., J. Am. Chem. Soc. 1995, 117, 11647) The alkylation site identification and the assessment of the relative selectivity among the available sites were obtained by thermally-induced strand cleavage of the singly 5′ end-labeled duplex DNA after exposure to the agents. […]

[5] = test system: w794 DNA (SV40 DNA segment, 144 bp); details: from earlier studies (refs 10, 11); cited from earlier work

Which “solvolysis reactivity relative to N-BOC-CBI / corresponding CBI-based agents (more reactive, less stable)” value ([1]; pH 3) does the source give for `CC(C)(C)OC(=O)N1CC2CC23C(=O)c2ccccc2C=C13` (racemic) [compound 31, 2-(tert-Butyloxycarbonyl)-1,2,9,9a-tetrahydrocyclopropa[c]benzo[f]indol-8-one] here?
Its value is 5 ×.

What about the “k, solvolysis rate constant” value ([1]; pH 3, 25° C., CH3OH/aqueous buffer) of the same compound?
The value was 6.98e-06 s⁻¹ and 6.97e-06 s⁻¹.

What about the “cytotoxic potency of unnatural enantiomer relative to natural enantiomer (slightly more potent)” value [2] of the same compound?
The value was 1-2 ×.

And the “stability of neat sample exposed to ambient light” value ([3]; ambient light, 25° C.)?
Its value is “carbonylcyclopropane rearrangement to form 36”.

And the “stability of neat sample protected from light” value ([3]; protected from light by foil)?
The value was “remained unchanged”.

For `COc1cc2cc(C(=O)N3CC4CC45C(=O)c4ccccc4C=C35)[nH]c2c(OC)c1OC` (single isomer, unassigned; (+)) [(+)-iso-CBI-TMI, 2-[(5,6,7-Trimethoxyindol-2-yl)carbonyl]-1,2,9,9a-tetrahydrocyclopropa[c]benzo[f]indol-8-one], which “DNA alkylation sites / selectivity” value [4] is on record?
The value was “selectivity identical to that of ent-(-duocarmycin SA”.

For `COC(=O)[C@]1(C)NC2=C(C1=O)[C@@]13C[C@@H]1CN(C(=O)c1cc4cc(OC)c(OC)c(OC)c4[nH]1)C3=CC2=O` [duocarmycin A], which “DNA alkylation efficiency, less efficient than duocarmycin SA” value [5] is on record?
The value was “ca. 10 ×”.
